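48-hour exposure; five concentrations; linearly interpolated endpoints. Abbreviation: GI50, concentration required for 50% inhibition of growth.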 The source made the active and inactive calls. No stated cut-off is given here; in the data, active = GI50 up to about 1.1 µM and inactive = higher.
Columns and labels:
Experiment in all cases: growth of human tumour cells (NCI), 48 h
[1] = test system: SF-539
[2] = test system: SN12C
[3] = test system: SK-MEL-2
[4] = test system: Malme-3M
[5] = test system: HCT-15
[6] = test system: IGROV-1
[7] = test system: RXF 631
[8] = test system: ACHN
[9] = test system: NCI-H460
[10] = test system: RPMI-8226
[11] = test system: KM-20L2
[12] = test system: LOX IMVI
[13] = test system: OVCAR-3
[14] = test system: HOP-92
[15] = test system: HOP-18
[16] = test system: HL-60
[17] = test system: SK-OV-3
[18] = test system: OVCAR-8
[19] = test system: NCI-H23
[20] = test system: M14
[21] = test system: OVCAR-4
[22] = test system: SK-MEL-28
[23] = test system: HT-29
[24] = test system: UO-31
[25] = test system: UACC-257
[26] = test system: M19-MEL
[27] = test system: A549
[28] = test system: HCT-116
[29] = test system: EKVX
[30] = test system: K562
[31] = test system: NCI-H522
[32] = test system: DMS-114
[33] = test system: SF-268
[34] = test system: COLO 205
[35] = test system: A498
[36] = test system: SF-295
[37] = test system: LXFL 529
[38] = test system: U-251
[39] = test system: SW-620
[40] = test system: TK-10
[41] = test system: MOLT-4
[42] = test system: 786-0
[43] = test system: HOP-62
[44] = test system: SNB-19
[45] = test system: SNB-78
[46] = test system: CCRF-CEM
[47] = test system: DMS-273
[48] = test system: RXF 393
[49] = test system: HCC 2998
[50] = test system: UACC-62
[51] = test system: KM12
[52] = test system: SNB-75
[53] = test system: DLD-1
[54] = test system: CAKI-1
[55] = test system: NCI-H226
[56] = test system: OVCAR-5
[57] = test system: SK-MEL-5
[58] = test system: SR

O=C(CC(=O)N1N=C(n2ccc3ccccc32)CC1c1ccccc1)Nc1ccccc1Cl (stereo not drawn)
GI50 [1]: > 100 µM (inactive) | GI50 [2]: > 100 µM (inactive) | GI50 [3]: > 100 µM (inactive) | GI50 [4]: > 100 µM (inactive) | GI50 [5]: > 100 µM | GI50 [6]: > 100 µM (inactive) | GI50 [7]: > 100 µM (inactive) | GI50 [8]: > 100 µM (inactive) | GI50 [9]: > 100 µM (inactive) | GI50 [10]: > 100 µM (inactive) | GI50 [11]: > 100 µM (inactive) | GI50 [12]: > 100 µM (inactive) | GI50 [13]: > 100 µM (inactive) | GI50 [14]: 32.3 µM (inactive) | GI50 [15]: > 100 µM (inactive) | GI50 [16]: > 100 µM (inactive) | GI50 [17]: > 100 µM (inactive) | GI50 [18]: > 100 µM (inactive) | GI50 [19]: > 100 µM (inactive) | GI50 [20]: > 100 µM (inactive) | GI50 [21]: > 100 µM (inactive) | GI50 [22]: > 100 µM (inactive) | GI50 [23]: > 100 µM (inactive) | GI50 [24]: > 100 µM (inactive) | GI50 [25]: > 100 µM (inactive) | GI50 [26]: > 100 µM (inactive) | GI50 [27]: > 100 µM (inactive) | GI50 [28]: > 100 µM (inactive) | GI50 [29]: > 100 µM (inactive) | GI50 [30]: > 100 µM (inactive) | GI50 [31]: > 100 µM (inactive) | GI50 [32]: > 100 µM (inactive) | GI50 [33]: > 100 µM (inactive) | GI50 [34]: > 100 µM (inactive) | GI50 [35]: > 100 µM (inactive) | GI50 [36]: > 100 µM (inactive) | GI50 [37]: > 100 µM (inactive) | GI50 [38]: > 100 µM (inactive) | GI50 [39]: > 100 µM (inactive) | GI50 [40]: > 100 µM (inactive) | GI50 [41]: > 100 µM (inactive) | GI50 [42]: > 100 µM (inactive) | GI50 [43]: > 100 µM (inactive) | GI50 [44]: > 100 µM (inactive) | GI50 [45]: > 100 µM (inactive) | GI50 [46]: > 100 µM (inactive) | GI50 [47]: > 100 µM (inactive) | GI50 [48]: > 100 µM (inactive) | GI50 [49]: > 100 µM (inactive) | GI50 [50]: > 100 µM (inactive) | GI50 [51]: > 100 µM (inactive) | GI50 [52]: > 100 µM (inactive)

COC(=O)c1ccc(Cc2ccc(C(=O)OC)o2)o1
GI50 [1]: > 378 µM (inactive) | GI50 [2]: > 378 µM (inactive) | GI50 [3]: > 378 µM (inactive) | GI50 [4]: > 378 µM (inactive) | GI50 [53]: > 378 µM (inactive) | GI50 [5]: > 378 µM | GI50 [6]: > 378 µM (inactive) | GI50 [7]: > 378 µM (inactive) | GI50 [8]: > 378 µM (inactive) | GI50 [9]: > 378 µM (inactive) | GI50 [10]: > 378 µM (inactive) | GI50 [11]: > 378 µM (inactive) | GI50 [12]: > 378 µM (inactive) | GI50 [13]: > 378 µM (inactive) | GI50 [14]: > 378 µM (inactive) | GI50 [15]: 38.5 µM (inactive) | GI50 [16]: > 378 µM (inactive) | GI50 [54]: > 378 µM (inactive) | GI50 [17]: > 378 µM (inactive) | GI50 [18]: > 378 µM (inactive) | GI50 [19]: > 378 µM (inactive) | GI50 [55]: > 378 µM (inactive) | GI50 [22]: > 378 µM (inactive) | GI50 [23]: > 378 µM (inactive) | GI50 [25]: > 378 µM (inactive) | GI50 [26]: > 378 µM (inactive) | GI50 [27]: > 378 µM (inactive) | GI50 [56]: > 378 µM (inactive) | GI50 [28]: > 378 µM (inactive) | GI50 [29]: > 378 µM (inactive) | GI50 [30]: > 378 µM (inactive) | GI50 [31]: > 378 µM (inactive) | GI50 [33]: > 378 µM (inactive) | GI50 [34]: > 378 µM (inactive) | GI50 [36]: > 378 µM (inactive) | GI50 [37]: > 378 µM (inactive) | GI50 [38]: > 378 µM (inactive) | GI50 [39]: > 378 µM (inactive) | GI50 [40]: > 378 µM (inactive) | GI50 [41]: > 378 µM (inactive) | GI50 [57]: > 378 µM (inactive) | GI50 [42]: > 378 µM (inactive) | GI50 [43]: > 378 µM (inactive) | GI50 [58]: > 378 µM (inactive) | GI50 [44]: 327 µM (inactive) | GI50 [46]: > 378 µM (inactive) | GI50 [47]: > 378 µM (inactive) | GI50 [48]: 282 µM (inactive) | GI50 [49]: > 378 µM (inactive) | GI50 [50]: > 378 µM (inactive) | GI50 [51]: > 378 µM (inactive)

Source: ChEMBL document CHEMBL1201862, “PubChem BioAssay data set” (2004)
